EC50, AC50 and IC50 data for 3 molecules are collected here from ChEMBL document CHEMBL1201862, “PubChem BioAssay data set” (2004).

Test [1] has as its target T1, Protein RecA (Mycobacterium tuberculosis, UniProt P9WHJ3).
T1 sequence (P9WHJ3 whole entry): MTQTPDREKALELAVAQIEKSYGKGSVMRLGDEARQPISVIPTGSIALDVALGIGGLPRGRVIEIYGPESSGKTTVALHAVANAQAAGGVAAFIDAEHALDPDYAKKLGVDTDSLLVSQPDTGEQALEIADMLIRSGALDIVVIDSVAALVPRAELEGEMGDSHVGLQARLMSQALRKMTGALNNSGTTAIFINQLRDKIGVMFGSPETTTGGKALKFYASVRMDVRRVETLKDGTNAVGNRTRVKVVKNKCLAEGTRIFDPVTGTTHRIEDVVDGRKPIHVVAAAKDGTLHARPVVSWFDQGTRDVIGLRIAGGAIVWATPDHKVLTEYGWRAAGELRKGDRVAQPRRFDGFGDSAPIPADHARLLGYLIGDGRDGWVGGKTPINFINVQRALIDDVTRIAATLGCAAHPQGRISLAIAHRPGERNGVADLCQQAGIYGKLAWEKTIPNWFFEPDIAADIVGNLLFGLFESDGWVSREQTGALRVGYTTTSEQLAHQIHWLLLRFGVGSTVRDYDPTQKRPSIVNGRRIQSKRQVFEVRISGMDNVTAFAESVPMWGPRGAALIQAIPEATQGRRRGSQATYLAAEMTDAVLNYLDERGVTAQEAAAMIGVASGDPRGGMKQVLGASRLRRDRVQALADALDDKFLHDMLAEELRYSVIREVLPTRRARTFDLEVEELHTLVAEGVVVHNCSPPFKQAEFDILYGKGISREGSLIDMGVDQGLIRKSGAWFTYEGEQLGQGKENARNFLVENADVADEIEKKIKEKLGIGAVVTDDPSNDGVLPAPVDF
The experiment in a line: Fluorescence Cell-Free Homogeneous Dose Retest to Identify Inhibitors of RecA-Intein Splicing Activity. [Related pubchem assays (depositor defined):AID2097, AID2223, AID489010, AID492950]. The class given is functional.

Test [2] has as its target T2, Replicative DNA helicase DnaB (Mycobacterium tuberculosis, UniProt P9WMR3).
T2 sequence (P9WMR3 whole entry): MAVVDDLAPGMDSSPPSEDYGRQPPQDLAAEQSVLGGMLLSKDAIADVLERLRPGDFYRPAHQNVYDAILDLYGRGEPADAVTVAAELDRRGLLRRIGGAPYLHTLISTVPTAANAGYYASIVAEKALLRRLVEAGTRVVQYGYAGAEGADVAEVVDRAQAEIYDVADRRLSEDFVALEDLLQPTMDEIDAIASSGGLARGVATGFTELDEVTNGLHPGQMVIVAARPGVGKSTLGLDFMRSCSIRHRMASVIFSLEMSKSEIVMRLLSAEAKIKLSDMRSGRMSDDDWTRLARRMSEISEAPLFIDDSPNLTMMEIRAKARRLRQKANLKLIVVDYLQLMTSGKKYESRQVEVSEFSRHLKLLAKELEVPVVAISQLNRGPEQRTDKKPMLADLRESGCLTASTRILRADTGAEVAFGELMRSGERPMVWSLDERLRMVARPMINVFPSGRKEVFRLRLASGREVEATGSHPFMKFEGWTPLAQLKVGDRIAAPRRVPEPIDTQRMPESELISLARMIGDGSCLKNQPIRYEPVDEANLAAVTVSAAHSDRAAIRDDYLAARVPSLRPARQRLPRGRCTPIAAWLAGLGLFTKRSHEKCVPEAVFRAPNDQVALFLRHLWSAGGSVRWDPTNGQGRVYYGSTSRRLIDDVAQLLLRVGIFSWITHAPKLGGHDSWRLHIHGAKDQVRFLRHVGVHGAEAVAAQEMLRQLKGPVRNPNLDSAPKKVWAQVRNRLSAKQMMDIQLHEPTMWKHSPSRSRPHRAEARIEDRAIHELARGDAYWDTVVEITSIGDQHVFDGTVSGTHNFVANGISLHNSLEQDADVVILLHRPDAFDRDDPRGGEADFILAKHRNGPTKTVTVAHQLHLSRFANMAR
The experiment in a line: DnaB intein splicing inhibitors, dose response, biochemical, cell-free fluorescence (AID 449749). The class given is functional.

Test [3] addresses T3, Tyrosyl-DNA phosphodiesterase 2 (Homo sapiens, UniProt O95551).
T3 sequence (O95551 whole entry): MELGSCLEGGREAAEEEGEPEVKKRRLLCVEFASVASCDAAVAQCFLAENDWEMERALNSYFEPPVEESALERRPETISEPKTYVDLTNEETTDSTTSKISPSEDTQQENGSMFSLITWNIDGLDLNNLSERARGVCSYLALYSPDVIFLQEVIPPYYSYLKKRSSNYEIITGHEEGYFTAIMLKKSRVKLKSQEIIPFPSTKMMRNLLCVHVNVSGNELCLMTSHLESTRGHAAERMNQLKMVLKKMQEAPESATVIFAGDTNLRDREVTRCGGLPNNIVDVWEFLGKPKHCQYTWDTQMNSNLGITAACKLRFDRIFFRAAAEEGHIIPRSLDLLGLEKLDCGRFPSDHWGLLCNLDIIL
The experiment in a line: human TDP2 enzyme inhibitors, dose response, biochemical, epi absorbance, IC50 (AID 743297).

Each structure is given as a SMILES string. Calls of active or inactive are those of the source.

In the case of `Cc1ccc(C(=O)NC2(O)C(=O)c3ccccc3C2=O)cc1C`, the EC50 in test [1] is 15.9 µM (active). The AC50 in test [2] is 6.24 µM (active). Besides, the half-maximal inhibitory concentration (IC50) in test [3] was 5.74 µM (active).

Regarding `O=[N+]([O-])c1c(Nc2ccccn2)cc(Cl)c2nonc12`, in test [1], the EC50 is 1.02 µM (active). Further, the AC50 in test [2] was 1.79 µM (active). In addition, the IC50 in test [3] was 99.4 µM (inactive).

`Cc1ccc(S(=O)(=O)/N=C2\C=C(Nc3cccc(C(=O)O)c3)C(=O)c3ccccc32)cc1`: the EC50 in test [1] was 0.266 µM (active). The AC50 in test [2] is 0.516 µM (active). In addition, the 50% inhibitory concentration (IC50) in test [3] was 3.18 µM (active).
